Results published in ChEMBL document CHEMBL1681678, “Discovery of β-aminoacyl containing thiazolidine derivatives as potent and selective dipeptidyl peptidase IV inhibitors” (Bioorg Med Chem Lett, 2011).
pEC50, pIC50: −log10 of the molar value.

Assays:
Aminopeptidase N = Aminopeptidase N (Homo sapiens, UniProt P15144); assay: Inhibition of APN
HepG2 = assay: Cytotoxicity against human HepG2 cells at 100 uM; assay type: cell-based; settings: hepg2, 100 µM
CYP3A4 = CYP3A4 (Homo sapiens, UniProt P08684); assay: Inhibition of CYP3A4 at 10 uM; assay type: ADME
Prolyl endopeptidase = target: T1, Prolyl endopeptidase (Rattus norvegicus, UniProt O70196); assay: Inhibition of POP in rat brain cortex; assay type: tissue-based
T1 sequence (O70196 whole entry): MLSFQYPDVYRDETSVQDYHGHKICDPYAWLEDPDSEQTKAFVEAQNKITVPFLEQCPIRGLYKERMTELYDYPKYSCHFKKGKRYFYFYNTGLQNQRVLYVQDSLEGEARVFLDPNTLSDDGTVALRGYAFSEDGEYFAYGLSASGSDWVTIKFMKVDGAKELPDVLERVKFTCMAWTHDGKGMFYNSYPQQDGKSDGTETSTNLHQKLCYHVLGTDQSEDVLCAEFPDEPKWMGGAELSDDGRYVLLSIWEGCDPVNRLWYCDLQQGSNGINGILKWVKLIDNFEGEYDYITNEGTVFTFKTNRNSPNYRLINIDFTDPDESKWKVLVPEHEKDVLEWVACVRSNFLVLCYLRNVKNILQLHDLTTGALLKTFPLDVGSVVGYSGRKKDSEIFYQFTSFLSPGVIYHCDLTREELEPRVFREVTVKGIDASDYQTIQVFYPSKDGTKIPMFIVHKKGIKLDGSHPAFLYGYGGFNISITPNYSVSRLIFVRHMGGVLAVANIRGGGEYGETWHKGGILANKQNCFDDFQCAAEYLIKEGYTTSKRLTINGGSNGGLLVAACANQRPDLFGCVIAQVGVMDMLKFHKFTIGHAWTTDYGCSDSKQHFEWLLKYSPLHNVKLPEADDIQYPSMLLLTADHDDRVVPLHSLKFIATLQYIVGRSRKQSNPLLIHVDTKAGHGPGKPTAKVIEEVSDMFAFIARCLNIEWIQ

[1] = Metabolic stability in rat liver microsomes assessed as compound remaining after 1 hr; assay type: ADME, Microsome; settings: read-out: Stability
Dipeptidyl peptidase 2 = Dipeptidyl peptidase 2 (Rattus norvegicus, UniProt Q9EPB1); assay: Inhibition of rat DPP2 expressed in african green monkey COS7 cells after 60 mins by fluorescence plate reader; assay type: cell-based, COS-7
CYP2C19 = CYP2C19 (Homo sapiens, UniProt P33261); assay: Inhibition of CYP2C19 at 10 uM; assay type: ADME
[2] = Cytotoxicity against human WI38 cells at 100 uM; assay type: cell-based; settings: wi-38, 100 µM
CYP2C9 = CYP2C9 (Homo sapiens, UniProt P11712); assay: Inhibition of CYP2C9 at 10 uM; assay type: ADME
CYP2D6 = CYP2D6 (Homo sapiens, UniProt P10635); assay: Inhibition of CYP2D6 at 10 uM; assay type: ADME
[3] = Chemical stability of the compound in buffer solution assessed as compound remaining at pH 1 to 9 after 24 hrs; assay type: physicochemical; settings: read-out: Stability
[4] = Inhibition of trypsin
[5] = target: Voltage-gated inwardly rectifying potassium channel KCNH2 (Homo sapiens, UniProt Q12809); assay: Binding affinity to human ERG
CYP1A2 = target: T2, CYP1A2 (Homo sapiens, UniProt P05177); assay: Inhibition of CYP1A2 at 10 uM; assay type: ADME
T2 sequence (P05177 whole entry): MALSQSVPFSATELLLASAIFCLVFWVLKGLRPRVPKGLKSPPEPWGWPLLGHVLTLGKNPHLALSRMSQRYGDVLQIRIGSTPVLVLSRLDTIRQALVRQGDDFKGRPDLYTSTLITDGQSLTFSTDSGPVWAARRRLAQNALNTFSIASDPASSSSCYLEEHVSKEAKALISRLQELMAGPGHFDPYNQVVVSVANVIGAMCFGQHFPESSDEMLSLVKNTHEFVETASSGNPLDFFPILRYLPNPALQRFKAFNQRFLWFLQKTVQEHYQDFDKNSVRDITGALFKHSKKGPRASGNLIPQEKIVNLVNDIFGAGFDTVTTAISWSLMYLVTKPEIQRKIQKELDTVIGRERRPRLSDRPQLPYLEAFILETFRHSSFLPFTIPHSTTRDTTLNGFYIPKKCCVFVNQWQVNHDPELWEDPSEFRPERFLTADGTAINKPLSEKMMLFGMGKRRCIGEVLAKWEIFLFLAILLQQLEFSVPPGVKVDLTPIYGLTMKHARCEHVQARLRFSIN

[6] = Metabolic stability in human liver microsomes assessed as compound remaining after 1 hr; assay type: ADME, Microsome; settings: read-out: Stability
[7] = Inhibition of elastase
Canis familiaris [8] = assay: Inhibition of DPP4 in Beagle dog plasma at 3 mg/kg, po after 4 hrs; assay type: functional; settings: Canis lupus familiaris
Canis familiaris [9] = assay: Inhibition of DPP4 in Beagle dog plasma at 3 mg/kg, po after 24 hrs; assay type: functional; settings: Canis lupus familiaris
Canis familiaris [10] = assay: Inhibition of DPP4 in Beagle dog plasma at 3 mg/kg, po after 12 hrs; assay type: functional; settings: Canis lupus familiaris
Rattus norvegicus [11] = assay: Inhibition of DPP4 in CD rat plasma at 10 mg/kg, po after 1 hr; assay type: functional
Canis familiaris [12] = assay: Inhibition of DPP4 in Beagle dog plasma at 3 mg/kg, po after 1 hr; assay type: functional; settings: Canis lupus familiaris
Rattus norvegicus [13] = assay: Inhibition of DPP4 in CD rat plasma at 10 mg/kg, po after 12 hrs; assay type: functional
Rattus norvegicus [14] = assay: Inhibition of DPP4 in CD rat plasma at 10 mg/kg, po after 8 hrs; assay type: functional

Sequence of CYP2C19 (P33261 whole entry): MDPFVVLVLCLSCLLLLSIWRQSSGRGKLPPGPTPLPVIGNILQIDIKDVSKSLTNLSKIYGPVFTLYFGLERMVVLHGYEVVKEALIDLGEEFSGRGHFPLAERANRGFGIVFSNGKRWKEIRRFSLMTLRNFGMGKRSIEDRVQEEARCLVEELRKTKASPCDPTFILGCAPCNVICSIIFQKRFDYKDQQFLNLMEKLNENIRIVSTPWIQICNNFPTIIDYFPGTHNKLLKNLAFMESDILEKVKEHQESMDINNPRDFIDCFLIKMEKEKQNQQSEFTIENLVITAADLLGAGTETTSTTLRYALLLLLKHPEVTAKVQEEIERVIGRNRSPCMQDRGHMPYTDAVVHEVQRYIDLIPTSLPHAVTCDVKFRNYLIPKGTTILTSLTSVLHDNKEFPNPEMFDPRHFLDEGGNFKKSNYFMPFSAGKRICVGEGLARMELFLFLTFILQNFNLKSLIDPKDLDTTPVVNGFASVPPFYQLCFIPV
Sequence of Aminopeptidase N (P15144 whole entry): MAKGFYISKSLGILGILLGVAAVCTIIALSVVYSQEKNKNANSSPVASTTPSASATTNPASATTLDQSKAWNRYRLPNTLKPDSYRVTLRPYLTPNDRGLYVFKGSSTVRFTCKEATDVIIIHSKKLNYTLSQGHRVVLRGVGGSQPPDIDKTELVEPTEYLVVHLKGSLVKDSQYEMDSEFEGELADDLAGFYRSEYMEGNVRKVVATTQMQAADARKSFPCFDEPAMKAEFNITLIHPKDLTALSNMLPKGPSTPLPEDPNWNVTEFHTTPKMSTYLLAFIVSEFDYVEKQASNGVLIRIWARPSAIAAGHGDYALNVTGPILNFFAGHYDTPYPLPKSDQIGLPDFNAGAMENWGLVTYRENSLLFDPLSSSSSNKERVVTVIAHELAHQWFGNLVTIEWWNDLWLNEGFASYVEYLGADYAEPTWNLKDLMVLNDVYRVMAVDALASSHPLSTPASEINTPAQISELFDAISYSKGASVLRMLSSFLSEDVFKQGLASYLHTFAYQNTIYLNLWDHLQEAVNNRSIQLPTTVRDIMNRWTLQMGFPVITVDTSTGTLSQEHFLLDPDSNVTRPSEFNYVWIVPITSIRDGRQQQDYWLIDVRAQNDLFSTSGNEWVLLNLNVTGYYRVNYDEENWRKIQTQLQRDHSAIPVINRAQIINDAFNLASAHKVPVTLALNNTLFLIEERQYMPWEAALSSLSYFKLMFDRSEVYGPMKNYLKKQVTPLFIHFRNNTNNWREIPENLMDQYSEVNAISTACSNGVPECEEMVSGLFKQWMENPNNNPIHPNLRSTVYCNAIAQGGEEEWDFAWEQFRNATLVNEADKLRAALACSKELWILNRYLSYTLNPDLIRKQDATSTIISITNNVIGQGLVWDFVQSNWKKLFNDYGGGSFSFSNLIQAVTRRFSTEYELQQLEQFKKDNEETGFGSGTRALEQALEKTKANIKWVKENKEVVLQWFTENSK
Sequence of Dipeptidyl peptidase 2 (Q9EPB1 whole entry): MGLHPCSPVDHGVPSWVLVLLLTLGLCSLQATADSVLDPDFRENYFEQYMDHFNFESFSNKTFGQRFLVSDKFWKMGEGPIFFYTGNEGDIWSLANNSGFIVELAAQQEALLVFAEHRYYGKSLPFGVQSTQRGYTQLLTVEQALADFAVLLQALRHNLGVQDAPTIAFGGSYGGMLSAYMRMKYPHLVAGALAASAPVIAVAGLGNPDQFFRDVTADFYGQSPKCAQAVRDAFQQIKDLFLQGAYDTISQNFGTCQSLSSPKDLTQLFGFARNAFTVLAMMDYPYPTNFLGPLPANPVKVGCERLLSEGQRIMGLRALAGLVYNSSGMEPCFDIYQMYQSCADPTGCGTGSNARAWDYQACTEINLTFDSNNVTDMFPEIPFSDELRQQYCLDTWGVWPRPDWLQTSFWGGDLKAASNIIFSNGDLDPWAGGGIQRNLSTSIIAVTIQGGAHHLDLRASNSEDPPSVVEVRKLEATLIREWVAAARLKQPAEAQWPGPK
Sequence of CYP3A4 (P08684 whole entry): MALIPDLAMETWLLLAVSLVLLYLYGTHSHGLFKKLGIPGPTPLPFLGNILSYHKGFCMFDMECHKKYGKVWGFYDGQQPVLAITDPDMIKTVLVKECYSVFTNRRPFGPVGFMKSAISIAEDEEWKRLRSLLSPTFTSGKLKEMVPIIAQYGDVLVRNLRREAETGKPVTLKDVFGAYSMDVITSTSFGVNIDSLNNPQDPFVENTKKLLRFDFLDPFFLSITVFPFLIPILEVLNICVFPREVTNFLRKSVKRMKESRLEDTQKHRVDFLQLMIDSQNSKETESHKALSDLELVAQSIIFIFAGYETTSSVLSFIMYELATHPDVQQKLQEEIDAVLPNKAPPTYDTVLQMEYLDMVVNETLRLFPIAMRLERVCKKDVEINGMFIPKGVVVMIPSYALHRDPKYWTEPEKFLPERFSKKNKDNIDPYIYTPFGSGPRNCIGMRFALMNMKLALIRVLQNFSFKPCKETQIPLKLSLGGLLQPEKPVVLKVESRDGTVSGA
Sequence of CYP2C9 (P11712 whole entry): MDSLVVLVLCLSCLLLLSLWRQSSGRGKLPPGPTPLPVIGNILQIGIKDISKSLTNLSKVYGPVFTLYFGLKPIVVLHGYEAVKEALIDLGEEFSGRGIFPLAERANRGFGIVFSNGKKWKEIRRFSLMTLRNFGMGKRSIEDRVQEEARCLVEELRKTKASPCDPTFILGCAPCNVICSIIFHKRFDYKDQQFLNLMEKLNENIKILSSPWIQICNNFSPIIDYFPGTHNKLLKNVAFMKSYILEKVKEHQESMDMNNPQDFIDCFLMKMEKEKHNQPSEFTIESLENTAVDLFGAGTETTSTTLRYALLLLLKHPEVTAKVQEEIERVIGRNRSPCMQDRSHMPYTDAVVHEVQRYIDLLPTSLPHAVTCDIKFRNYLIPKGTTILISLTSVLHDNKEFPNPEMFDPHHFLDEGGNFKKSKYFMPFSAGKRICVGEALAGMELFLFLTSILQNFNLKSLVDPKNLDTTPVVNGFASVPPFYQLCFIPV
Sequence of Voltage-gated inwardly rectifying potassium channel KCNH2 (Q12809 whole entry): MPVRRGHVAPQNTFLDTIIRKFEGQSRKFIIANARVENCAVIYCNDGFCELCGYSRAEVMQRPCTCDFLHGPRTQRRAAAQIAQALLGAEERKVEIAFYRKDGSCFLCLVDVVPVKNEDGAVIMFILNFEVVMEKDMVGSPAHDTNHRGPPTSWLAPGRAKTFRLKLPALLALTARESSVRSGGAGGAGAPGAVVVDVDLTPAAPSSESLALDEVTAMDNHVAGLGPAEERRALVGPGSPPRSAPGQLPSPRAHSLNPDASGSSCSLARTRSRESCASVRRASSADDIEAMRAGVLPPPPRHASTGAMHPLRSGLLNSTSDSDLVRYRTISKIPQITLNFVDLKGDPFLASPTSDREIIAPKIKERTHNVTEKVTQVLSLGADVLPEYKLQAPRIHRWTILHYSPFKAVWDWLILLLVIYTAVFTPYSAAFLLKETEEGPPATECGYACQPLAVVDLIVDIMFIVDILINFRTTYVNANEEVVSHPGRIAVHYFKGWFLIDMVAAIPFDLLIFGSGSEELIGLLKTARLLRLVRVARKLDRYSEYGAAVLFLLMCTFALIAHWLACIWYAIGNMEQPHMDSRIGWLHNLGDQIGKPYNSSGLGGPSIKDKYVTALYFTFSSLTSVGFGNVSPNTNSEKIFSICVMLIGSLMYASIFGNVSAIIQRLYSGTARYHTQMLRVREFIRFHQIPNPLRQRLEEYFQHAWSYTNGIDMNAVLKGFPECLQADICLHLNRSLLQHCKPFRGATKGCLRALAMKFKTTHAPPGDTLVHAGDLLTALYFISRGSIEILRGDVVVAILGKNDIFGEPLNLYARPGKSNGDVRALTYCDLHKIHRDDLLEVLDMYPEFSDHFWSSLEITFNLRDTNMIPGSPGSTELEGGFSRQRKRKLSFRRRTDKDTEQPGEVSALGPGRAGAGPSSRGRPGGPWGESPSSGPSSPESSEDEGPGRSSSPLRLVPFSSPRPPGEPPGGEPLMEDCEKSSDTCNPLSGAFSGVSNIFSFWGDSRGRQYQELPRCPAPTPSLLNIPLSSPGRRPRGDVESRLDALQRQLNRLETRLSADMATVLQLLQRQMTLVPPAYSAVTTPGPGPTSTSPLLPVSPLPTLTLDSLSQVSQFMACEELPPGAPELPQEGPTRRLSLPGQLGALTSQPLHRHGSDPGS
Sequence of CYP2D6 (P10635 whole entry): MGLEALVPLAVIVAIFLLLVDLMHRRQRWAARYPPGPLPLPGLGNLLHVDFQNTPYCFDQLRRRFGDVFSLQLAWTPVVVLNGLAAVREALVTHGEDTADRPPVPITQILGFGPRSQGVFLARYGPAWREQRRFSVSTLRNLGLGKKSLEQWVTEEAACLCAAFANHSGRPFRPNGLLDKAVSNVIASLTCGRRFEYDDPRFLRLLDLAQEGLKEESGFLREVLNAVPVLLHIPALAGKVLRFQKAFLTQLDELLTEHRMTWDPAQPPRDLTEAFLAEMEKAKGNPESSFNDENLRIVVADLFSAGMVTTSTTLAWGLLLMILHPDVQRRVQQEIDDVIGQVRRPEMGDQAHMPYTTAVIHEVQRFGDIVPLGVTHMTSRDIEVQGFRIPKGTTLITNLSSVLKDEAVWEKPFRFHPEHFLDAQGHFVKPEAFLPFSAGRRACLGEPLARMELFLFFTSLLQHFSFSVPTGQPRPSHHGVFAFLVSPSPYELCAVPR

**Q.** With CC(C)[C@@H](Nc1ccc(CNC(=O)[C@@H]2SCCN2C(=O)C[C@H](N)Cc2cc(F)c(F)cc2F)cc1)C(=O)O.Cl as the compound, how does the pIC50 (Aminopeptidase N) read?
**A.** < 4.00

**Q.** And the Activity (HepG2)?
**A.** Non-toxic

**Q.** What about the inhibition at 10 µM (CYP3A4) of the same compound?
**A.** 3.5%

**Q.** What about the pIC50 (Prolyl endopeptidase) of the same compound?
**A.** < 4.00

**Q.** And the remaining at 1 h [1]?
**A.** > 90%

**Q.** What about the pIC50 (Dipeptidyl peptidase 2) of the same compound?
**A.** < 4.00

**Q.** And the inhibition at 10 µM (CYP2C19)?
**A.** 46.9%

**Q.** What about the Activity [2] of the same compound?
**A.** Non-toxic

**Q.** And the inhibition at 10 µM (CYP2C9)?
**A.** 26.8%

**Q.** And the inhibition at 10 µM (CYP2D6)?
**A.** 12.2%

**Q.** What about the remaining at 24 h [3] of the same compound?
**A.** > 90%

**Q.** What about the pIC50 [4] of the same compound?
**A.** < 4.00

**Q.** And the pEC50 [5]?
**A.** 3.39

**Q.** And the inhibition at 10 µM (CYP1A2)?
**A.** 2.9%

**Q.** And the remaining at 1 h [6]?
**A.** > 90%

**Q.** What about the pIC50 [7] of the same compound?
**A.** < 4.00

**Q.** For CCOC(=O)[C@H](Nc1ccc(CNC(=O)[C@@H]2SCCN2C(=O)C[C@H](N)Cc2cc(F)c(F)cc2F)cc1)C(C)C, which inhibition in vivo at 3 mg/kg (Canis familiaris [8]) is on record?
**A.** 93%

**Q.** What about the inhibition in vivo at 3 mg/kg (Canis familiaris [9]) of the same compound?
**A.** 44%

**Q.** What about the inhibition in vivo at 3 mg/kg (Canis familiaris [10]) of the same compound?
**A.** 77%

**Q.** And the inhibition in vivo at 10 mg/kg (Rattus norvegicus [11])?
**A.** 95%

**Q.** What about the inhibition in vivo at 3 mg/kg (Canis familiaris [12]) of the same compound?
**A.** 94%

**Q.** What about the inhibition in vivo at 10 mg/kg (Rattus norvegicus [13]) of the same compound?
**A.** 87%

**Q.** And the inhibition in vivo at 10 mg/kg (Rattus norvegicus [14])?
**A.** 92%
